Reference: patent US20020129385A1, “MEDTHODS FOR IMPROVING LONG-TERM MEMORY STORAGE AND RETRIEVAL” (priority 1998, published 2002)

Experiments:
NMDA receptors = assay: NMDA-mediated synaptic potentials in hippocampal slices (DNQX, reduced Mg2+); assay type: cell-based, mouse; settings: 50 (M DL-AP5); 10 (M DNQX, Mg2+ 50 μM)
Experimental: (§1) Transverse hippocampal slices were prepared as previously described (Abel et al., 1997). Mice of either sex, aged 7-18 weeks were used. Where appropriate, the experimenter was blind to animal genotype. […] For extracellular recordings, ACSF-filled glass electrodes (1-3 MW) were positioned in the stratum radiatum of area CA1. A bipolar nichrome stimulating electrode was also placed in stratum radiatum for stimulation of Schaffer collateral afferents (0.05 ms duration). Unless otherwise mentioned, test stimuli were applied at a frequency of 1 per minute (0.017 Hz), and at a stimulus intensity that elicits a fEPSP slope that was 35% of the maximum. Experiments in which changes in the fiber volley occurred, were discarded. Drugs were applied through the perfusion medium. DL-AP5, calyculin A, KT5720 and R(+)-6-Bromo-7,8-dihydroxy-3-allyl-1-phenyl-2,3,5-tetrahydro-1H-3-benzazepine (6-Br-APB) were purchased from Research Biochemicals International, Natick, Mass.

SC-CA1 synapse [1] = assay: Chemically-induced slow-onset potentiation (L-LTP), fEPSP recording in hippocampal slices; assay type: cell-based, mouse; parameters: dose or concentration left out as unconfirmed
Experimental: as §1

calcineurin [2] = assay: Phosphatase assay in hippocampal extracts of CN98 mice; assay type: biochemical, mouse; settings: CN98 mutant and wild-type hippocampal extracts
Experimental: Phosphatase assays were performed according to Hubbard and Klee (1991). Briefly, mice were injected with 5 ml/kg of pentobarbital and decapitated. Hippocampi were homogenized in 2 mM EDTA (pH 8), 250 mM sucrose, 0.1% β-mercaptoethanol and centrifuged. Supernatants were diluted in 40 mM Tris-HCl (pH 8), 0.1 M NaCl, 0.4 mg/ml bovine serum albumin, 1 mM DTT, […] okadaic acid (Buffer 1) and incubated at 30° C. for 1 min in Buffer 1 containing […] of the peptide [γ^32p]-RII subunit of cyclic AMP-dependent protein kinase (PKA) and either 0.1 mM calmodulin (SIGMA®) and 0.66 mM Ca^2( or 0.33 mM EGTA (pH 7.5). The peptide [Ala^97]-RII (Peninsula Labs) was labeled with 0.3 mM [γ^32p] ATP (NEN®) using […] catalytic subunit of PKA (FLUKA®). The reaction was stopped with 5% TCA in 0.1 M KH2PO4 and the enzyme activity was calculated as previously described (Klee et al., 1983) and is expressed in nmol Pi released/min/mg protein. The protein concentration was determined using the bicinchroninic acid protein assay kit (SIGMA®). All samples were performed in triplicate.

calcineurin [3] = assay: Phosphatase assay in hippocampal extracts of Tet-CN279 and Tet-CN273 mice; assay type: biochemical, mouse
Experimental: Phosphatase assays were performed as described in Winder et al., 1998. Briefly, mice were injected with 5 ml/kg of pentobarbital and decapitated. Hippocampi were dissected out, homogenized in 2 mM EDTA (pH 8), 250 mM sucrose, 0.1% β-mercaptoethanol. Supernatants were incubated at 30° C. for 1 min in presence of the […] [[…]]-RII peptide and either 0.1 mM calmodulin and 0.66 mM Ca^2+ or 0.33 mM EGTA. The reaction was stopped and the enzyme activity calculated previously as described (Klee et al., 1983; 1987). The activity was expressed in nmol Pi released/min/mg protein. The protein concentration was determined using the bicinchroninic acid protein assay kit (SIGMA®). All samples were performed in triplicate.

calcineurin [4] = assay: Phosphatase assay in hippocampal extracts of rTet-CN279 mice; assay type: biochemical, mouse; settings: extracts from control and mutant mice not treated or treated with doxycycline
Experimental: Phosphatase assays were performed as described in Winder et al., 1998. Briefly, hippocampal extracts from rTet-CN279 adult mice were prepared in 2 mM EDTA (pH 8), 250 mM sucrose, 0.1% b-mercaptoethanol. Supernatants were incubated at 30° C. for 1 min in the presence of […] [[…]]-RII peptide and either 0.1 mM calmodulin and 0.66 mM Ca^2( or 0.33 mM EGTA. The enzyme activity was expressed in nmol Pi released/min/mg protein.

SC-CA1 synapse [5] = assay: LTP induced by two 100 Hz trains in hippocampal slices in the presence of drugs; assay type: cell-based, mouse; parameters: Sensitivity of LTP elicited by two trains to preincubation with the drug: dose or concentration left out as unconfirmed
Experimental: as §1

SC-CA1 synapse [6] = assay: LTP induced by four 100 Hz trains in hippocampal slices in the presence of drugs; assay type: cell-based, mouse; settings: wild-type slices; KT5720, 20 minute pretreatment; anisomycin 30 μM one hour
Experimental: as §1

[7] = tested on: protein synthesis in area CA1; settings: 30 μM; Stanton and Sarvey, 1984; Osten et al., 1996; cited from earlier work
SC-CA1 synapse [8] = assay: LTP induced by two trains in slices of Tet-CN279 mice on or off doxycycline (tTA system); assay type: cell-based, mouse
Experimental: as §1
The transgenic mice CN279 and CN273 were generated by microinjection of the linear construct as previously described (Hogan et al., 1994; Winder et al., 1998). Analysis of founder mice for integration of the transgene was performed by Southern blotting and PCR. The founder mice were backcrossed to C57BL6 F1/J mice to generate the transgenic lines CN279 and CN273. […]

[9] = tested on: Schaffer collateral CA1 pathway; assay: LTP induced by two 100 Hz trains (I-LTP) in slices of rTet-CN279 mice treated with doxycycline (rtTA system); assay type: cell-based, mouse; settings: ACSF 6 ng doxycycline/ml
Experimental: Recordings were performed as described in Winder et al., (1998). […] Test stimuli were applied at a frequency of 1 per min at an intensity that elicits an EPSP with a slope of […] of maximum. Slices from mice treated with doxycycline were incubated in ACSF containing doxycycline (6 ng/ml) for 2-3 hours before the tetanus was applied and subfused with doxycycline solution throughout the recordings.

NC(CCCP(=O)(O)O)C(=O)O (racemic) [DL-AP5]
NMDA-mediated field potentials in the presence of the drug (NMDA receptors): abolished

C=CCN1CCc2c(cc(O)c(O)c2Br)[C@@H](c2ccccc2)C1 [6-Br-APB, R(+)-6-Bromo-7,8-dihydroxy-3-allyl-1-phenyl-2,3,5-tetrahydro-1H-3-benzazepine]
fEPSP slope, % of baseline at 3 hr after drug application (SC-CA1 synapse [1]; CN98 mutant slices): 181±41 % of baseline | fEPSP slope, % of baseline at 3 hr after drug application (SC-CA1 synapse [1]; wild-type slices): 204±40 % of baseline

O=C(O)CN(CCOCCOCCN(CC(=O)O)CC(=O)O)CC(=O)O [EGTA]
Phosphatase activity in the presence of the calcium chelator (calcineurin [2]): virtually abolished | Phosphatase activity (calcineurin [3]; mutant (Tet-CN279+Tet-CN273)+EGTA): 0.287±0.17 nmol Pi/min/mg | Phosphatase activity (calcineurin [3]; wild-type (Tet-CN279+Tet-CN273)+EGTA): 0.432±0.11 nmol Pi/min/mg | Phosphatase activity in the presence of the Ca2+ chelator (calcineurin [4]): blocked

CCCCCCOC(=O)[C@]1(O)C[C@@H]2O[C@@]1(C)n1c3ccccc3c3c4c(c5c6ccccc6n2c5c31)C(=O)NC4 [KT5720]
LTP elicited by two trains, % of baseline at 1 hr (SC-CA1 synapse [5]; wild-type slices, KT5720, no drug 206±23%): 153±5 % of baseline | Decay of LTP induced by four 100 Hz trains, compared with anisomycin (SC-CA1 synapse [6]): much more rapid decay of LTP

Nc1ncnc2c1ncn2[C@@H]1O[C@@H]2COP(O)(=S)O[C@H]2[C@H]1O (stereo partly drawn) [Sp-cAMPS]
fEPSP slope, % of baseline at 3 hr after drug application (SC-CA1 synapse [1]; CN98 mutant slices): 122±17 % of baseline | fEPSP slope, % of baseline at 3 hr after drug application (SC-CA1 synapse [1]; wild-type slices): 124±13 % of baseline

COc1ccc(C[C@H]2NC[C@H](O)[C@H]2OC(C)=O)cc1 [anisomycin]
Sensitivity of LTP elicited by two trains to preincubation with the drug (SC-CA1 synapse [5]; wild-type slices, anisomycin (FIG. 4C)): completely insensitive | Effect on protein synthesis in area CA1 [7]: completely block protein synthesis

COC[C@@H]([C@H](O)[C@H](O)C(=O)NCC[C@H](C)c1nc(/C=C/C[C@@H]2O[C@]3(C[C@@H](O)[C@@H]2C)O[C@H]([C@H](C[C@H](O)[C@H](C)[C@H](O)[C@H](C)/C=C(C)/C(C)=C/C=C/C(C)=C\C#N)OC)[C@H](OP(=O)(O)O)C3(C)C)co1)N(C)C [calyculin A]
LTP induced with two 100 Hz trains after drug pretreatment, mutant versus wild-type (SC-CA1 synapse [5]; Tet-CN279 mutant slices, 750 nM, 30 minutes pretreatment): indistinguishable from that seen in wild-type

C[C@H]1c2cccc(O)c2C(=O)C2=C(O)[C@]3(O)C(=O)C(C(N)=O)=C(O)[C@@H](N(C)C)[C@@H]3[C@@H](O)[C@@H]21 [doxycycline]
LTP induced by two trains, % of baseline at 1 hr (SC-CA1 synapse [8]; Tet-CN279 Wt on doxycycline (1 mg/ml water, 1 ng/ml ACSF)): 191±18 % of baseline | LTP induced by two trains, % of baseline at 1 hr (SC-CA1 synapse [8]; Tet-CN279 mutant on doxycycline (1 mg/ml water, 1 ng/ml ACSF)): 184±18 % of baseline | LTP induced by two 100 Hz trains (I-LTP), % of baseline at 1 hour ([9]; rTet-CN279 Control dox): 195±9 % of baseline | LTP induced by two 100 Hz trains (I-LTP), % of baseline at 1 hour ([9]; rTet-CN279 Mutant dox): 141±8 % of baseline
